Earlier results on one compound are cited in patent US20150080385A1, “OPHTHALMIC PHARMACEUTICAL COMPOSITION CONTAINING A CARBONIC ANHYDRASE INHIBITOR AND METHOD FOR THE PREPARATION THEREOF” (PHARMATHEN S.A., priority 2012, published 2015).

For the compound `CCN[C@H]1CN(CCCOC)S(=O)(=O)c2sc(S(N)(=O)=O)cc21` [Brinzolamide, (R)-4-ethylamino-3,4-dihydro-2-(3-methoxy) propyl-2H-thieno[3,2-e]-1,2-thiazine-6-sulfonamide 1, 1 dioxide], the “Solubility in alcohol and methanol” value (alcohol and methanol) was “slightly soluble”. In addition, the Solubility in water result (water) is given as “insoluble”.
